Results taken from PubChem BioAssay (NCI).
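Step 1: Grow cells in 96-well plates. Step 2: Expose to compound for 48 hours at 5 concentrations. Step 3: Interpolate endpoints linearly; if unreached, use highest concentration. Here, GI50 denotes the concentration required for 50% inhibition of growth. TGI is the concentration that stops growth completely.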

What was measured:
Experiment in all cases: growth of human tumour cells (NCI), 48 h
UACC-257 melanoma = test system: UACC-257 melanoma
SF-295 CNS = test system: SF-295 CNS
SW-620 colon = test system: SW-620 colon
SNB-19 CNS = test system: SNB-19 CNS
OVCAR-4 ovarian = test system: OVCAR-4 ovarian
RPMI-8226 leukemia = test system: RPMI-8226 leukemia
KM12 colon = test system: KM12 colon
SK-MEL-5 melanoma = test system: SK-MEL-5 melanoma
UACC-62 melanoma = test system: UACC-62 melanoma
LOX IMVI melanoma = test system: LOX IMVI melanoma

| SMILES | GI50 (UACC-257 melanoma) [µM] | TGI (UACC-257 melanoma) [µM] | GI50 (SF-295 CNS) [µM] | TGI (SF-295 CNS) [µM] | GI50 (SW-620 colon) [µM] | TGI (SW-620 colon) [µM] | GI50 (SNB-19 CNS) [µM] | TGI (SNB-19 CNS) [µM] | GI50 (OVCAR-4 ovarian) [µM] | TGI (OVCAR-4 ovarian) [µM] | GI50 (RPMI-8226 leukemia) [µM] | TGI (RPMI-8226 leukemia) [µM] | GI50 (KM12 colon) [µM] | TGI (KM12 colon) [µM] | GI50 (SK-MEL-5 melanoma) [µM] | TGI (SK-MEL-5 melanoma) [µM] | GI50 (UACC-62 melanoma) [µM] | TGI (UACC-62 melanoma) [µM] | GI50 (LOX IMVI melanoma) [µM] | TGI (LOX IMVI melanoma) [µM] |
| --- | --- | --- | --- | --- | --- | --- | --- | --- | --- | --- | --- | --- | --- | --- | --- | --- | --- | --- | --- | --- |
| CCCCCCCCCCCCCC[n+]1ccc(C)cc1 | 0.763 | 2.48 | 3.25 | 17.8 | 0.945 | 3.88 | 1.46 | 4.02 | 0.523 | 2.71 | 0.426 | 2.37 | 0.281 | 0.802 | 0.548 | 1.81 | 1.08 | 2.57 | 0.35 | 1.36 |
| CC(C)c1ccccc1SCc1cc(=O)cc(CSc2ccccc2C(C)C)o1 |  | 51 |  | 67.5 |  | 81.2 |  | > 100 |  | 46.9 |  | > 100 |  | 32.9 |  | > 100 |  | 36.2 |  | 84.4 |
| C=C1C(=O)OC2CC(C)C3C4OC4C(O)C3(C)C(O)C12 (configuration not stated) |  | 104 |  | 98 |  | 54.6 |  | 102 |  | 59.7 |  | 51.1 |  | 71.1 |  | 87.1 |  | 43.8 |  | 65.3 |
| CC12CCC(CC1)C(C)(C)O2 |  | 73.7 |  | 116 | 9.09 | 89.7 | 20.8 | 103 |  | 129 |  | 173 |  | 118 |  | 21.8 |  | 69.6 |  | 48.7 |
| O=C1/C(=C/c2ccc(O)cc2)COc2ccc(O)c(O)c21 | 4.5 | > 100 | 5.36 | > 100 | 2.11 | 5.36 | 3.74 | > 100 | 2.85 | 65.9 | 0.499 | 3.68 | 1.99 | 6.04 | 1.81 | 4.01 | 1.99 | 4.36 | 1.47 | 3.22 |
| CSc1nc(N)c2c(-c3ccccc3)c3c(nc2n1)CCCC3 |  | > 100 |  | > 100 |  | > 100 |  | > 100 |  | > 100 |  | > 100 |  | > 100 |  | > 100 |  | > 100 |  | > 100 |
